Here are results for 14 compounds from patent US6399643B1, “Spiroimidazolidine derivatives, their preparation, their use and pharmaceutical preparations formed therefrom” (Aventis Pharma Deutschland GmbH, priority 1999, dated 2002).

SMILES strings stand for the structures. Where a name gives a salt, the structure may show the parent alone.

In the experiment the target is T1, interaction between VCAM-1 and VLA-4 (Homo sapiens, UniProt P05556+P13612).
T1 construct: supplied in their natural form as surface molecules on human U937 cells; host or cells: human U937 cells (VLA-4, endogenous); the partner hVCAM-1(1-3)-IgG was made in house in transfected COS cells (ATCC CRL1651) and used as culture supernatant
T1 sequence (P13612 34-1032): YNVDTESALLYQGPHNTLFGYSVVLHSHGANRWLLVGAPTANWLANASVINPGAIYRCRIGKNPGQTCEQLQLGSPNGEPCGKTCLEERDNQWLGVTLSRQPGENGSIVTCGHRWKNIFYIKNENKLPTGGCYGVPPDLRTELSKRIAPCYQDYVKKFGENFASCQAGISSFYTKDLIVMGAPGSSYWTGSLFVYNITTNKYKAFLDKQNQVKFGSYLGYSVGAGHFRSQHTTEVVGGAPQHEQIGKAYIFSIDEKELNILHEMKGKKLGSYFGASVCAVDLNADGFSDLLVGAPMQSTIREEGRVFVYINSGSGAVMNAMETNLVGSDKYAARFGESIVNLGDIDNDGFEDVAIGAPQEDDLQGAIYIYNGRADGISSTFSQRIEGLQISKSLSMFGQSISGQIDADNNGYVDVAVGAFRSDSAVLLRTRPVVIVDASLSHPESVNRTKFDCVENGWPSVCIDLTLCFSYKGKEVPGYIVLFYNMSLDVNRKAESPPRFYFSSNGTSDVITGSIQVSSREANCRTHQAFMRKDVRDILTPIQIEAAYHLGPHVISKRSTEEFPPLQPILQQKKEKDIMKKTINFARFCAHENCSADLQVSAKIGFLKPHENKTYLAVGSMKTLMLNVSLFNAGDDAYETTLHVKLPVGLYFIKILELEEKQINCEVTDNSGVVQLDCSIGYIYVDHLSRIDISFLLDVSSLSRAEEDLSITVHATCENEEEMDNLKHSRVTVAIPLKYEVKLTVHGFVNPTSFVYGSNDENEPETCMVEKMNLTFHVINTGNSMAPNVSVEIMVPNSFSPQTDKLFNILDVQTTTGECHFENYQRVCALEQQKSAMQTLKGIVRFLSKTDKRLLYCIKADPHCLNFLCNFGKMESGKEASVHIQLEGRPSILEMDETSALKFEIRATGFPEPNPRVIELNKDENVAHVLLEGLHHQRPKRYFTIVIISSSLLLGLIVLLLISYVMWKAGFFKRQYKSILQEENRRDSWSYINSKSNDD
T1 sequence (P05556 21-798): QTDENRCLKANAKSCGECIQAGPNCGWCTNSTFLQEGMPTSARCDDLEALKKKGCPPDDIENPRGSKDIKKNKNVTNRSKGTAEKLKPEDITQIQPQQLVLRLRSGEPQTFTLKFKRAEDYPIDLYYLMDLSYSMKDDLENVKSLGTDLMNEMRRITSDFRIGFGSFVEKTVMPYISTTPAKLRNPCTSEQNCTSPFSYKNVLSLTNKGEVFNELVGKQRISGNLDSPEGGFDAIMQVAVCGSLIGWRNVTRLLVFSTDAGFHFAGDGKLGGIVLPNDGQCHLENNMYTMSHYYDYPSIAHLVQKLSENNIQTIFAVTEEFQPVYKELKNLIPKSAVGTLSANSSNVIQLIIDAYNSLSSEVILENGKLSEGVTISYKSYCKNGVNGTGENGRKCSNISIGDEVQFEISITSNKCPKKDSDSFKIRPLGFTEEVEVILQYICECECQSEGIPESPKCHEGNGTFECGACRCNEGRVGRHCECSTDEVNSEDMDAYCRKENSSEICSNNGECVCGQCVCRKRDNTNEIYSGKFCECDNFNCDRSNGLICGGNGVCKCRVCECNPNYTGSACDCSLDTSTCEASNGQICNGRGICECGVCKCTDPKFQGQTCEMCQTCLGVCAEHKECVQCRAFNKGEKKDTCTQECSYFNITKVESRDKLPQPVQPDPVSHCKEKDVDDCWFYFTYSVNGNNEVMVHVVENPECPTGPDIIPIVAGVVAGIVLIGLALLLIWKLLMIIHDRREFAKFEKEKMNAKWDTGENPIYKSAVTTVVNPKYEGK
The experiment in a line: U937/VCAM-1 cell adhesion test (adhesion of U937 cells to hVCAM-1(1-3)-IgG). In kind it is cell-based. The following applies: inhibition of adhesion of human U937 cells (ATCC CRL 1593) to hVCAM-1(1-3)-IgG. From the text: A) U937/VCAM-1 Cell Adhesion Test
The test method used for the activity of the compounds of the formula I on the interaction between VCAM-1 and VLA-4 is the assay described below, which is specific for this interaction. The cellular binding components, that is the VLA-4 integrins, are supplied in their natural form as surface molecules on human U937 cells (ATCC CRL 1593), which belong to the leukocytes group. The specific binding components used are genetically engineered recombinant soluble fusion proteins, consisting of the extracytoplasmic domain of human VCAM-1 and the constant region of a human immunoglobulin of the subclass IgG1.
Assay for the Measurement of the Adhesion of U937 Cells (ATCC CRL 1593) to hVCAM-1 (1-3)-IgG
1. Preparation of Human VCAM-1(1-3)-IgG and Human CD4-IgG
A genetic construct for the expression of the extracellular domain of human VCAM-1, combined with the genetic sequence of the heavy chain of human immunoglobulin IgG1 (hinge, CH2 and CH3 regions) (from Brian Seed, Massachusetts General Hospital, Boston, USA; cf. Damle and Aruffo, Proc. Natl. Acad. Sci. USA 1991, 88, 6403), was employed. The soluble fusion protein hVCAM-1(1-3)-IgG contained the three aminoterminal extracellular immunoglobulin-like domains of human VCAM-1 (Damle and Aruffo, Proc. Natl. Acad. Sci. USA 1991, 88, 6403). CD4-IgG (Zettlmeissl et al., DNA and Cell Biology 1990, 9, 347) served as a fusion protein for negative controls. The recombinant proteins were expressed as soluble proteins after DEAE/dextran-mediated DNA transfection in COS cells (ATCC CRL1651) according to standard procedures (Ausubel et al., Current protocols in molecular biology, John Wiley & Sons, Inc., 1994).
2. Assay for the Measurement of the Adhesion of U937 Cells to hVCAM-1(1-3)-IgG
2.1 96-well microtiter test plates (Nunc Maxisorb) were incubated at room temperature for 1 hour with 100 μl/well of a goat-anti-human IgG antibody solution (10 μg/ml in 50 mM tris, pH 9.5). After removal of the antibody solution, washing was carried out once with PBS.
2.2 150 μl/well of a blocking buffer (1% BSA in PBS) were incubated on the plates at room temperature for 0.5 hour. After removal of the blocking buffer, washing was carried out once with PBS.
2.3 100 μl per well of a cell culture supernatant of transfected COS cells were incubated on the plates at room temperature for 1.5 hours. The COS cells were transfected with a plasmid which codes for the three N-terminal immunoglobulin-like domains of VCAM-1, coupled to the Fc portion of human IgG1 (hVCAM-1 (1-3)-IgG). The content of hVCAM-1(1-3)-IgG was about 0.5-1 μg/ml. After removing the culture supernatant, washing was carried out once with PBS.
2.4 The plates were incubated at room temperature for 20 minutes with 100 μl/well of Fc receptor blocking buffer (1 mg/ml of γ-globulin, 100 mM NaCl, 100 μM MgCl2, 100 μM MnCl2, 100 μM CaCl2, 1 mg/ml of BSA in 50 mM HEPES, pH 7.5). After removal of the Fc receptor blocking buffer, washing was carried out once with PBS.
2.5 20 μl of binding buffer (100 μM NaCl, 100 μM MgCl2, 100 μM MnCl2, 100 μM CaCl2, 1 mg/ml of BSA in 50 mM HEPES, pH 7.5) were initially introduced, and the substances to be tested were added in 10 μl of binding buffer and incubated for 20 minutes. The controls used were antibodies against VCAM-1(BBT, No. BBA6) and against VLA-4(Immunotech, No. 0764).
2.6 U937 cells were incubated in Fc receptor blocking buffer for 20 minutes and then pipetted in at a concentration of 1×10^6/ml and in an amount of 100 μl per well ([…]).
2.7 The plates were slowly immersed at an angle of 45° in stop buffer (100 mM NaCl, 100 μM MgCl2, 100 μM MnCl2, 100 μM CaCl2 in 25 mM Tris, pH 7.5) and shaken off. The process was repeated.
2.8 50 μl/well of a dye solution ([…] of Hoechst Dye 33258, 4% formaldehyde, 0.5% Triton X-100 in PBS) were then incubated on the plates for 15 minutes. […]
For orientation: IC50 means the concentration at which inhibition is half-maximal. Read a low IC50 as inhibition by little substance. Compound `COc1cccc([C@H](CC(=O)O)NC(=O)[C@H](CC(C)C)N2C(=O)N(Cc3ccc(NC(=O)Nc4ccccc4C)cc3)C3(CCCCC3)C2=O)c1` [Example 25, (S)-3-((S)-2-(4,4-Pentamethylene-3-(4-(3-(2-methylphenyl)ureido)benzyl)-2,5-dioxoimidazolidin-1-yl)-2-(2-methylpropyl)acetylamino)-3-(3-methoxyphenyl)propionic acid] returned a half-inhibitory concentration (IC50) of 1.1 nM. The same measure for `COc1ccc([C@H](CC(=O)O)NC(=O)[C@H](CC(C)C)N2C(=O)N(Cc3ccc(NC(=O)Nc4ccccc4C)cc3)C3(CCCCC3)C2=O)cc1` [Example 26, (S)-3-((S)-2-(4,4-Pentamethylene-3-(4-(3-(2-methylphenyl)ureido)benzyl)-2,5-dioxoimidazolidin-1-yl)-2-(2-methylpropyl)acetylamino)-3-(4-methoxyphenyl)propionic acid]: 2.6 nM. For `COc1ccc([C@H](CC(=O)O)NC(=O)[C@H](CC(C)C)N2C(=O)N(Cc3ccc(NC(=O)Nc4ccccc4C)cc3)C3(CCCCC3)C2=O)cc1` [Example 27, (S)-3-((S)-2-(4,4-Pentamethylene-3-(4-(3-(2-methylphenyl)ureido)benzyl)-2,5-dioxoimidazolidin-1-yl)-2-(2-methylpropyl)acetylamino)-3-(4-methoxyphenyl)propionic acid tromethamine salt] the value was 3.4 nM; for `COc1ccc([C@H](CC(=O)O)NC(=O)[C@H](CC(C)C)N2C(=O)N(Cc3ccc(NC(=O)Nc4ccccc4C)cc3)C3(CCCCC3)C2=O)c(OC)c1` [Example 28, (S)-3-((S)-2-(4,4-Pentamethylene-3-(4-(3-(2-methyphenyl)ureido)benzyl)-2,5-dioxoimidazolidin-1-yl)-2-(2-methylpropyl)acetylamino)-3-(2,4-dimethoxyphenyl)propionic acid], 2.1 nM; for `COc1ccc([C@H](CC(=O)O)NC(=O)[C@H](CC(C)C)N2C(=O)N(Cc3ccc(NC(=O)Nc4ccccc4C)cc3)C3(CCCCC3)C2=O)c(OC)c1` [Example 29, (S)-3-((S)-2-(4,4-Pentamethylene-3-(4-(3-(2-methylphenyl)ureido)benzyl-2,5-dioxoimidazolidin-1-yl)-2-(2-methylpropyl)acetylamino)-3-(2,4-dimethoxyphenyl)propionic acid tromethamine salt], 1.9 nM.

Take `COc1ccc([C@H](CC(=O)O)NC(=O)[C@H](CC(C)C)N2C(=O)N(Cc3ccc(NC(=O)Nc4ccccc4C)cc3)C3(CCCCC3)C2=O)c(OC)c1` [Example 30, (S)-3-((S)-2-(4,4-Pentamethylene-3-(4-(3-(2-methylphenyl)ureido)benzyl)-2,5-dioxoimidazolidin-1-yl)-2-(2-methylpropyl)acetylamino)-3-(2,4-dimethoxyphenyl)propionic acid sodium salt]: inhibition was half-maximal at 3.6 nM (IC50).

The compound `COc1ccc([C@H](CC(=O)O)NC(=O)[C@H](CC(C)C)N2C(=O)N(Cc3ccc(NC(=O)Nc4ccccc4C)cc3)C3(CCCCC3)C2=O)cc1OC` [Example 31, (S)-3-((S)-2-(4,4-Pentamethylene-3-(4-(3-(2-methylphenyl)ureido)benzyl)-2,5-dioxoimidazolidin-1-yl)-2-(2-methylpropyl)acetylamino)-3-(3,4-dimethoxyphenyl)propionic acid] returned an IC50 of 0.8 nM. The same measure for `COc1ccc([C@H](CC(=O)O)NC(=O)[C@H](CC(C)C)N2C(=O)N(Cc3ccc(NC(=O)Nc4ccccc4C)cc3)C3(CCCCC3)C2=O)cc1OC` [Example 32, (S)-3-((S)-2-(4,4-Pentamethylene-3-(4-(3-(2-methylphenyl)ureido)benzyl)-2,5-dioxoimidazolidin-1-yl)-2-(2-methylpropyl)acetylamino)-3-(3,4-dimethoxyphenyl)propionic acid tromethamine salt]: 0.6 nM.

`COc1ccc([C@H](CC(=O)O)NC(=O)[C@H](CC(C)C)N2C(=O)N(Cc3ccc(NC(=O)Nc4ccccc4C)cc3)C3(CCCCC3)C2=O)cc1OC` [Example 33, (S)-3-((S)-2-(4,4-Pentamethylene-3-(4-(3-(2-methylphenyl)ureido)benzyl)-2,5-dioxoimidazolidin-1-yl)-2-(2-methylpropyl)acetylamino)-3-(3,4-dimethoxyphenyl)propionic acid sodium salt]: half-maximal inhibition (IC50) was put at 1.3 nM.

Take `Cc1ccccc1NC(=O)Nc1ccc(CN2C(=O)N([C@@H](CC(C)C)C(=O)N[C@@H](CC(=O)O)c3ccc4c(c3)OCCO4)C(=O)C23CCCCC3)cc1` [Example 34, (S)-3-((S)-2-(4,4-Pentamethylene-3-(4-(3-(2-methylphenyl)ureido)benzyl)-2,5-dioxoimidazolidin-1-yl)-2-(2-methylpropyl)acetylamino)-3-(3,4-ethylenedioxyphenyl)propionic acid]: the IC50 amounted to 1.8 nM.

The compound `Cc1ccccc1NC(=O)Nc1ccc(CN2C(=O)N([C@@H](CC(C)C)C(=O)N[C@@H](CC(=O)O)c3ccc4c(c3)OCCO4)C(=O)C23CCCCC3)cc1` [Example 35, (S)-3-((S)-2-(4,4-Pentamethylene-3-(4-(3-(2-methylphenyl)ureido)benzyl)-2,5-dioxoimidazolidin-1-yl)-2-(2-methylpropyl)acetylamino)-3-(3,4-ethylenedioxyphenyl)propionic acid sodium salt] returned an IC50 of 3.4 nM. The same measure for `COc1cc(CN2C(=O)N([C@@H](CC(C)C)C(=O)N[C@@H](CC(=O)O)c3ccc(OC)c(OC)c3)C(=O)C23CCCCC3)ccc1NC(=O)Nc1ccccc1C` [Example 37, (S)-3-((S)-2-(4,4-Pentamethylene-3-(4-(3-(2-methylphenyl)ureido)-3-methoxybenzyl)-2,5-dioxoimidazolidin-1-yl)-2-(2-methylpropyl)acetylamino)-3-(3,4-dimethoxyphenyl)propionic acid]: 1.3 nM; for `COc1cc(CN2C(=O)N([C@@H](CC(C)C)C(=O)N[C@@H](CC(=O)O)c3ccc(OC)c(OC)c3)C(=O)C23CCCCC3)ccc1NC(=O)Nc1ccccc1C` [Example 38, (S)-3-((S)-2-(4,4-Pentamethylene-3-(4-(3-(2-methylphenyl)ureido)-3-methoxybenzyl)-2,5-dioxoimidazolidin-1-yl)-2-(2-methylpropyl)acetylamino)-3-(3,4-dimethoxyphenyl)propionic acid tromethamine salt]: 1.6 nM. For `COc1ccc([C@H](CC(=O)O)NC(=O)[C@H](CC2CC2)N2C(=O)N(Cc3ccc(NC(=O)Nc4ccccc4C)cc3)C3(CCCCC3)C2=O)cc1OC` [Example 39, (S)-3-((S)-2-(4,4-Pentamethylene-3-(4-(3-(2-methylphenyl)ureido)benzyl)-2,5-dioxoimidazolidin-1-yl)-2-cyclopropylmethylacetylamino)-3-(3,4-dimethoxyphenyl)propionic acid] the value was 0.8 nM.
